For experiment [1], the system named is Escherichia coli R5. As to the kind of experiment: in vitro antibiotic activity, two fold dilution test (MIC). Type of experiment: cell-based. To be noted: Streptomycin Assay Agar with yeast extract, pH 7.9, inoculum approx. 1×10^5. The method, then: (§1) The in vitro antibiotic activity is determined by a two fold dilution test using Streptomycin Assay Agar with yeast extract (at pH 7.9). The inoculum of approximately 1×10^5 of the indicated test organism is delivered by a multiple inoculator. The minimum inhibitory concentrations for a representative compound, O-demethyl-3'-deoxyseldomycin factor 5 is set forth in Table II. The minimum inhibitory concentrations are expressed in micrograms per milliliter.

Experiment [2] relates to Escherichia coli 76-2. Described as above. Type of experiment: cell-based. To be noted: 762, Streptomycin Assay Agar with yeast extract, pH 7.9, inoculum approx. 1×10^5. How it is done: as §1
Experiment [3] relates to Eschericha coli ATCC 26. The description is as above. To be noted: Streptomycin Assay Agar with yeast extract, pH 7.9, inoculum approx. 1×10^5. Type of experiment: cell-based. The method, then:
as §1

Experiment [4] deals with Pseudomonas aeruginosa PST. The description is as above. Type of experiment: cell-based. The note with it: Streptomycin Assay Agar with yeast extract, pH 7.9, inoculum approx. 1×10^5. The method, then: as §1
Experiment [5] concerns Escherichia coli R16. Described as above. Type of experiment: cell-based. The note with it: Streptomycin Assay Agar with yeast extract, pH 7.9, inoculum approx. 1×10^5. How it is done: as §1
In experiment [6] the test system is Proteus vulgaris ATCC 6897. Described as above. Type of experiment: cell-based. The note with it: ATCC6897, Streptomycin Assay Agar with yeast extract, pH 7.9, inoculum approx. 1×10^5. The method, then: as §1
For experiment [7], the system named is Pseudomonas aeruginosa BMH#1. The description is as above. Type of experiment: cell-based. The note with it: Streptomycin Assay Agar with yeast extract, pH 7.9, inoculum approx. 1×10^5. How it is done: as §1
The test system of experiment [8] is Escherichia coli R19. The experiment is described as above. Type of experiment: cell-based. The note with it: Streptomycin Assay Agar with yeast extract, pH 7.9, inoculum approx. 1×10^5. How it is done:
as §1

The test system of experiment [9] is Escherichia coli R3. Described as above. Type of experiment: cell-based. The note with it: Streptomycin Assay Agar with yeast extract, pH 7.9, inoculum approx. 1×10^5. The method, then:
as §1

For experiment [10], the system named is Klebsiella pneumoniae ATCC 10031. The description is as above. Type of experiment: cell-based. The note with it: ATCC10031, Streptomycin Assay Agar with yeast extract, pH 7.9, inoculum approx. 1×10^5. The method, then: as §1
The test system of experiment [11] is Escherichia coli NR 79. The experiment is described as above. Type of experiment: cell-based. The note with it: NR79, Streptomycin Assay Agar with yeast extract, pH 7.9, inoculum approx. 1×10^5. The method, then:
as §1

For experiment [12], the system named is Bacillus subtilis U. of Ill. 10707. The experiment is described as above. Type of experiment: cell-based. To be noted: Streptomycin Assay Agar with yeast extract, pH 7.9, inoculum approx. 1×10^5. How it is done:
as §1

For experiment [13], the system named is Proteus stuartii ATCC 25825. The experiment is described as above. Type of experiment: cell-based. The note with it: Streptomycin Assay Agar with yeast extract, pH 7.9, inoculum approx. 1×10^5. How it is done:
as §1

Experiment [14] deals with Staphylococcus aureus ATCC 6538P. Described as above. Type of experiment: cell-based. To be noted: ATCC6538P, Streptomycin Assay Agar with yeast extract, pH 7.9, inoculum approx. 1×10^5. The method, then:
as §1

The subject of experiment [15] is Pseudomonas aeruginosa KY-8512. The experiment is described as above. Type of experiment: cell-based. To be noted: KY8512, Streptomycin Assay Agar with yeast extract, pH 7.9, inoculum approx. 1×10^5. How it is done: as §1
Experiment [16] deals with Gram-positive and Gram-negative organisms. To be noted: Staphylococcus aureus, Klebsiella pneumoniae, Escherchia coli and Proteus species; cited from earlier work.

Values after ≈ are worked out from the molar mass of the structure shown.

With `NC[C@@H]1CC[C@@H](N)[C@@H](O[C@H]2[C@H](O)[C@@H](OC3OCC(O)C(N)C3N)[C@H](N)C[C@@H]2N)O1` (stereo partly shown) [O-demethyl-3'-deoxyseldomycin factor 5, O-Demethyl-3'-deoxyseldomycin factor 5], the MIC in experiment [1] was 0.8 µg/mL (≈ 1.9 µM); in experiment [2], 0.16 µg/mL (≈ 0.38 µM); in [3], 0.16 µg/mL (≈ 0.38 µM); in experiment [4], 720 µg/mL (≈ 1710 µM); in [5], 0.4 µg/mL (≈ 0.951 µM); in experiment [6], 0.31 µg/mL (≈ 0.737 µM). Besides, the MIC in experiment [7] came out at 0.63 µg/mL (≈ 1.5 µM); in experiment [8] it was 0.16 µg/mL (≈ 0.38 µM); in experiment [9] it was 2.5 µg/mL (≈ 5.95 µM); in experiment [10] it was 0.04 µg/mL (≈ 0.0951 µM); in [11], 0.16 µg/mL (≈ 0.38 µM); in [12], 0.01 µg/mL (≈ 0.0238 µM). The minimal inhibitory concentration (MIC) stood at 2.5 µg/mL (≈ 5.95 µM) in experiment [13], 0.02 µg/mL (≈ 0.0476 µM) in experiment [14] and 1.25 µg/mL (≈ 2.97 µM) in experiment [15].
As to `COC1COC(O[C@@H]2[C@@H](O)[C@H](O[C@H]3O[C@H](CN)C[C@H](O)[C@H]3N)[C@@H](N)C[C@H]2N)C(N)C1N` (stereo partly shown) [Seldomycin factor 5], the antibiotic activity entry in [16] is “highly active, broad-spectrum antibiotic effective against both Gram-positive and Gram-negative organisms”.

The values are drawn from patent US4239752A, “O-Demethylseldomycin factor 5 derivatives” (Abbott Laboratories, priority 1979, dated 1980).
